From PubChem BioAssay AID1919013 (Molecular Pharmacology Branch, DTP, NCI, 2023)
Values joined by “and” are separate entries in the source; they are usually repeats but may differ in a detail not shown here. Equal entries are not always repeated.

Tested on: LG0703-F498-PDC complex spheroid growth
Assay: Anticancer human tumor LG0703-F498-PDC patient-derived lung adenocarcinoma cell line growth inhibition [AhR]
Settings: for viability, T/C: stronger effect = lower value
How it was run: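 Agents were dosed in half-log steps down from roughly clinical Cmax, or from 10 microM where Cmax was unknown, alone and with AhR antagonists. Read-out: percent test/control growth of tumor spheroids containing HUVEC and MSC stromal cells.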

[1] = curve of first compound, second compound 0.1 µM
[2] = curve of first compound, second compound 0.316 µM
[3] = curve of first compound, second compound 1 µM
[4] = curve of first compound, second compound 3.16 µM
[5] = curve of first compound, second compound 10 µM
[6] = second compound 0.1 µM, first compound 0.0316 µM
[7] = second compound 0.1 µM, first compound 0.1 µM
[8] = second compound 0.1 µM, first compound 0.316 µM
[9] = second compound 0.1 µM, first compound 1 µM
[10] = second compound 0.1 µM, first compound 3.16 µM
[11] = second compound 0.1 µM, first compound 10 µM
[12] = second compound 0.316 µM, first compound 0.0316 µM
[13] = second compound 0.316 µM, first compound 0.1 µM
[14] = second compound 0.316 µM, first compound 0.316 µM
[15] = second compound 0.316 µM, first compound 1 µM
[16] = second compound 0.316 µM, first compound 3.16 µM
[17] = second compound 0.316 µM, first compound 10 µM
[18] = second compound 1 µM, first compound 0.0316 µM
[19] = second compound 1 µM, first compound 0.1 µM
[20] = second compound 1 µM, first compound 0.316 µM
[21] = second compound 1 µM, first compound 1 µM
[22] = second compound 1 µM, first compound 3.16 µM
[23] = second compound 1 µM, first compound 10 µM
[24] = second compound 3.16 µM, first compound 0.0316 µM
[25] = second compound 3.16 µM, first compound 0.1 µM
[26] = second compound 3.16 µM, first compound 0.316 µM
[27] = second compound 3.16 µM, first compound 1 µM
[28] = second compound 3.16 µM, first compound 3.16 µM
[29] = second compound 3.16 µM, first compound 10 µM
[30] = second compound 10 µM, first compound 0.0316 µM
[31] = second compound 10 µM, first compound 0.1 µM
[32] = second compound 10 µM, first compound 0.316 µM
[33] = second compound 10 µM, first compound 1 µM
[34] = second compound 10 µM, first compound 3.16 µM
[35] = second compound 10 µM, first compound 10 µM
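Further: luminescence taken as a proxy for viable cell amount.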
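Wherever viability, T/C is given: percent of DMSO vehicle control where 100% means growth equal to vehicle.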

Row | SMILES | IC50 [1] [µM] | IC50 [2] [µM] | IC50 [3] [µM] | IC50 [4] [µM] | IC50 [5] [µM] | viability, T/C [6] [%] | viability, T/C [7] [%] | viability, T/C [8] [%] | viability, T/C [9] [%] | viability, T/C [10] [%] | viability, T/C [11] [%] | viability, T/C [12] [%] | viability, T/C [13] [%] | viability, T/C [14] [%] | viability, T/C [15] [%] | viability, T/C [16] [%] | viability, T/C [17] [%] | viability, T/C [18] [%] | viability, T/C [19] [%] | viability, T/C [20] [%] | also measured
1 | O=C(C=Cc1cccc(S(=O)(=O)Nc2ccccc2)c1)NO + Cc1cncc(-c2nc(NCCc3c[nH]c4ccccc34)c3ncn(C(C)C)c3n2)c1 | 0.619 | 0.657 | 0.523 | 0.423 | < 0.0316 | 118 | 115 | 75.8 | 30.8 | 10.1 | 1.27 | 111 | 104 | 81.1 | 32 | 7.58 | 1.48 | 106 | 108 | 69.3 | viability, T/C [21]: 23.6%; viability, T/C [22]: 6.31%; viability, T/C [23]: 0.83%; viability, T/C [24]: 59.9%; viability, T/C [25]: 71.5%; viability, T/C [26]: 57.8%; viability, T/C [27]: 25%; viability, T/C [28]: 6.63%; viability, T/C [29]: 1.68%; viability, T/C [30]: 1.93%; viability, T/C [31]: 2.88%; viability, T/C [32]: 4.14%; viability, T/C [33]: 8.01%; viability, T/C [34]: 9.58%; viability, T/C [35]: 1.55%
2 | Nc1ccn(C2OC(CO)C(O)C2(F)F)c(=O)n1 (configuration not stated) |  |  |  |  |  |  |  |  |  |  |  |  |  |  |  |  |  |  |  |  | viability, T/C (compound 0.0316 µM): 38% and 42% and 41.4%; viability, T/C (compound 0.1 µM): 37.1% and 44.8% and 35.2%; viability, T/C (compound 0.316 µM): 35.5% and 47.5% and 34.7%; viability, T/C (compound 1 µM): 32.2% and 38.6% and 33.6%; viability, T/C (compound 3.16 µM): 26.9% and 34.3% and 30.5%; viability, T/C (compound 10 µM): 20.3% and 28.3% and 21.4%; IC50 (curve of compound): < 0.0316 µM
3 | CC1(C)CCC(CN2CCN(c3ccc(C(=O)NS(=O)(=O)c4ccc(NCC5CCOCC5)c([N+](=O)[O-])c4)c(Oc4cnc5[nH]ccc5c4)c3)CC2)=C(c2ccc(Cl)cc2)C1 + CC(CO)NC(=O)c1cc(-c2ccc(Cl)cc2)nn(-c2cnn(C)c2)c1=O | 5.91 | 5.65 | 5.8 | 5.48 | 5.13 | 92.1 | 99.7 | 89.5 | 85.6 | 87.4 | 18.4 | 106 | 108 | 86.8 | 82.4 | 86 | 20.5 | 85.6 | 97.4 | 90.3 | viability, T/C [21]: 92.7%; viability, T/C [22]: 85.4%; viability, T/C [23]: 18.2%; viability, T/C [24]: 82.2%; viability, T/C [25]: 80.1%; viability, T/C [26]: 90.1%; viability, T/C [27]: 90.2%; viability, T/C [28]: 78.7%; viability, T/C [29]: 18.3%; viability, T/C [30]: 75.8%; viability, T/C [31]: 80.1%; viability, T/C [32]: 77.2%; viability, T/C [33]: 78.2%; viability, T/C [34]: 73.2%; viability, T/C [35]: 17.9%
4 | O=C(c1cc(Cc2n[nH]c(=O)c3ccccc23)ccc1F)N1CCN(C(=O)C2CC2)CC1 + Cc1ccccc1N=Nc1ccc(NC(=O)c2ccnn2C)c(C)c1 | > 10 | > 10 | > 10 | > 10 | > 10 | 89.3 | 94.8 | 89.8 | 93.8 | 85.7 | 84.6 | 96.5 | 119 | 95.7 | 102 | 102 | 79.9 | 86.7 | 98 | 88.7 | viability, T/C [21]: 94.4%; viability, T/C [22]: 90.2%; viability, T/C [23]: 82.2%; viability, T/C [24]: 82.1%; viability, T/C [25]: 97.1%; viability, T/C [26]: 83.5%; viability, T/C [27]: 86.9%; viability, T/C [28]: 83.9%; viability, T/C [29]: 73.9%; viability, T/C [30]: 85.6%; viability, T/C [31]: 93%; viability, T/C [32]: 94.5%; viability, T/C [33]: 77.8%; viability, T/C [34]: 72.3%; viability, T/C [35]: 70.5%
5 | CC1(C)CCC(CN2CCN(c3ccc(C(=O)NS(=O)(=O)c4ccc(NCC5CCOCC5)c([N+](=O)[O-])c4)c(Oc4cnc5[nH]ccc5c4)c3)CC2)=C(c2ccc(Cl)cc2)C1 + Cc1ccccc1N=Nc1ccc(NC(=O)c2ccnn2C)c(C)c1 | 6.26 | 6.52 | 5.65 | 5.77 | 7.19 | 102 | 94.5 | 94.1 | 94.3 | 95.2 | 19.1 | 98.7 | 104 | 100 | 89.5 | 92.9 | 24.5 | 96.8 | 87 | 107 | viability, T/C [21]: 91.1%; viability, T/C [22]: 78.5%; viability, T/C [23]: 22.2%; viability, T/C [24]: 79%; viability, T/C [25]: 90.9%; viability, T/C [26]: 82.9%; viability, T/C [27]: 107%; viability, T/C [28]: 75.4%; viability, T/C [29]: 26.8%; viability, T/C [30]: 95%; viability, T/C [31]: 86%; viability, T/C [32]: 96.2%; viability, T/C [33]: 76.2%; viability, T/C [34]: 83.3%; viability, T/C [35]: 37.7%
